Experimental data reported in patent US20210330611A1, “THERAPY FOR NEUROLOGICAL DISEASES/DISORDERS” (priority 2020, published 2021).
Structures can show the parent of a compound that is named as a salt. Where two headings read alike, the source gives them in different places.

Key:
[1] = tested on: fibrin-induced microglia activation; test: Image-based assay of fibrin-induced microglia activation (HTS and dose response); format: cell-based, rat; details: for inhibition at 10 µM: Rattus norvegicus, Microglia, read-out: Fibrin % inhibition
[2] = tested on: LPS-induced microglia activation; test: Image-based assay of LPS-induced microglia activation (HTS and dose response); format: cell-based, rat; details: for inhibition at 10 µM: Rattus norvegicus, Microglia, read-out: LPS % inhibition
[3] = tested on: fibrin- and LPS-induced microglia activation; test: cells; format: cell-based, rat
primary rat microglia [4] = test: Cell toxicity (dead cells, size <150 μm2) in LPS assay
primary rat microglia [5] = test: Cell toxicity (dead cells, size <150 μm2) in coated fibrin (cFib) assay;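 also: share of dead cells sized under 150 µm2 at 10 µM in fibrin-stimulated microglia HTS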
[6] = primary HTS, 10 μM, fibrin-stimulated primary microglia
[7] = primary HTS, 10 μM, LPS-stimulated primary microglia
[8] = primary HTS, 10 μM, LPS assay, dead cells size <150 μm2
[9] = primary HTS, 10 μM, fibrin assay, dead cells size <150 μm2
[10] = primary microglia HTS, fibrin stimulation, increased cell size (>800 μm^2) as marker of activation
[11] = 48 h, primary microglia HTS, LPS stimulation, increased cell size (>800 μm^2) as marker of activation
[12] = quadrant by fibrin and LPS inhibition in HTS of 1907 compounds
[13] = primary microglia HTS, LPS stimulation, decreased size (<150 μm^2) as marker of toxicity
[14] = primary microglia HTS, fibrin stimulation, decreased size (<150 μm^2) as marker of toxicity
[15] = primary microglia HTS, fibrin stimulation, activation = cell size >800 μm2
[16] = primary microglia HTS, LPS stimulation, toxicity = cell size <150 μm2
[17] = primary microglia HTS, fibrin stimulation, toxicity = cell size <150 μm2

| Compound | Quadrant (FIG. 5b) ([3]; primary HTS, 10 μM) | LPS % cell toxicity (primary rat microglia [4]; [8]) [%] | Fibrin % cell toxicity (primary rat microglia [5]; [9]) [%] | inhibition at 10 µM [1, 10] [%] | inhibition at 10 µM [2, 11] [%] | Quadrant (FIG. 5b) [3, 12] | LPS % cell toxicity (primary rat microglia [4]; [13]) [%] | Fibrin % cell toxicity (primary rat microglia [5]; [14]) [%] | further results |
| --- | --- | --- | --- | --- | --- | --- | --- | --- | --- |
| CC(C)(O)C(Cl)(Cl)Cl [Chlorobutanol] | Q4 | 0 | 1 | – | – | – | – | – | inhibition at 10 µM [1, 6]: -20%; inhibition at 10 µM [2, 7]: 3% |
| N=C(N)/N=C(\N)N1CCOCC1 [Moroxydine Hydrochloride] | – | – | – | -22 | 4 | Q4 | 0 | 1 | – |
| O=C(O)CCc1nc(-c2ccccc2)c(-c2ccccc2)o1 [Oxaprozin] | – | – | – | 0 | 15 | Q4 | 1 | 1 | – |
| Cc1cc2c(OCC(CNC(C)(C)C)OC(=O)c3ccccc3)cccc2[nH]1 (stereo not drawn) [Bopindolol] | – | – | – | 105 | 81 | Q2 | 2 | 6 | – |
| CO/N=C(\C(=O)N[C@@H]1C(=O)N2C(C(=O)OCOC(=O)C(C)(C)C)=C(/C=C\c3scnc3C)CS[C@H]12)c1csc(N)n1 [Cefditorin Pivoxil] | Q4 | 1 | 1 | – | – | – | – | – | Fibrin % inhibition [1, 6]: 2%; LPS % inhibition [2, 7]: 21% |
| Cc1c(Nc2ncccc2C(=O)O)cccc1C(F)(F)F [Flunixin Meglumine] | – | – | – | – | – | Q4 | – | – | inhibition at 10 µM [1, 15]: -6%; inhibition at 10 µM ([2]; 48 h, primary microglia HTS, LPS stimulation, activation = cell size >800 μm2): 8%; LPS % cell toxicity (primary rat microglia [4]; [16]): 0%; Fibrin % cell toxicity (primary rat microglia [5]; [17]): 1% |
| O=C(CCNNC(=O)c1ccncc1)NCc1ccccc1 [Nialamide] | – | – | – | -6 | 11 | Q4 | 0 | 1 | – |
| Cc1ccc(O)cc1 [P-Cresol] | – | – | – | – | – | Q4 | 0 | 0 | Fibrin % inhibition [1, 10]: −15%; LPS % inhibition ([2]; primary microglia HTS, LPS stimulation, increased cell size (>800 μm^2) as marker of activation): 15% |
| COc1c2ccoc2cc2oc(=O)ccc12 [Bergapten] | Q4 | 0 | 1 | – | – | – | – | – | inhibition at 10 µM [1, 6]: -5%; inhibition at 10 µM [2, 7]: 22% |
| CC(=O)Oc1ccccc1C(=O)Nc1ncc([N+](=O)[O-])s1 [Nitazoxanide] | – | – | – | -16 | 22 | Q4 | 0 | 1 | – |
| O=C1c2ccccc2C(=O)C1c1ccc(Br)cc1 [Bromindione] | Q4 | 0 | 1 | – | – | – | – | – | inhibition at 10 µM [1, 6]: 17%; inhibition at 10 µM [2, 7]: 27% |
| C#C[C@]1(OC(C)=O)CC[C@H]2[C@@H]3CCC4=CC(=NO)CC[C@@H]4[C@H]3CC[C@@]21CC (mixture of isomers) [Norgestimate] | – | – | – | -5 | 12 | Q4 | 0 | 0 | – |
| CCCCC(=O)N(Cc1ccc(-c2ccccc2-c2nnn[nH]2)cc1)[C@H](C(=O)O)C(C)C [Valsartan] | – | – | – | – | – | – | – | – | inhibition at 10 µM [1]: -17%; inhibition at 10 µM [2]: 12%; Quadrant (FIG. 5b) ([3]; HTS of 1907 compounds, quadrant by fibrin and LPS inhibition): Q4; LPS % cell toxicity (primary rat microglia [4]; primary microglia HTS, 10 μM, LPS assay, cell size <150 μm^2 as marker of toxicity): 0%; Fibrin % cell toxicity (primary rat microglia [5]; primary microglia HTS, 10 μM, fibrin assay, cell size <150 μm^2 as marker of toxicity): 0% |
| C[C@H](CS)C(=O)N1CCC[C@H]1C(=O)O [Captopril] | Q4 | 1 | 1 | – | – | – | – | – | inhibition at 10 µM [1, 6]: -11%; inhibition at 10 µM [2, 7]: 12% |
| CC(C)(C)NC[C@H](O)COc1cccc2c1CCCC2=O [Levobunolol] | – | – | – | – | – | Q4 | – | – | Fibrin % inhibition [1, 15]: −28%; LPS % inhibition ([2]; primary microglia HTS, LPS stimulation, activation = cell size >800 μm2): 30%; LPS % cell toxicity (primary rat microglia [4]; [16]): 0%; Fibrin % cell toxicity (primary rat microglia [5]; [17]): 1% |
